Measured values reported in patent publication US10806794B2, “Protease inhibitors having enhanced features” (priority 2008, dated 2020).
Where “and” joins values, the source holds several entries; their conditions need not be identical. Identical values can stand only once. Like-named read-outs stand apart in the source and are kept apart here.

Assays:
HIV-1RF [1] = assay: Post-exposure assay: compounds added after HIV-1 infection of CEM-SS cells, cell viability; type: cell-based; conditions: Human immunodeficiency virus 1, CEM-SS
Procedure: (§1) The effects of pre- and post-infection PI treatment on CEM-SS toxicity were assessed. […] Cell toxicity was monitored six days after infection using XTT reagent. In the post-exposure assay, test compounds were added to cells 0, 24, 48, or 72 h after HIV-1 infection, and cell viability was measured six days post-infection.

CEM-SS cells [2] = assay: Post-exposure assay: toxicity in CEM-SS cells
Procedure: as §1

CEM-SS cells [3] = assay: Pre-exposure assay: toxicity in CEM-SS cells
Procedure: as §1

HIV-1RF [4] = assay: Pre-exposure assay: CEM-SS cells treated before HIV-1RF infection, cell viability; type: cell-based; conditions: for EC50: Human immunodeficiency virus 1, CEM-SS
Procedure: as §1

HIV-1 virions = assay: Infectivity of HIV-1 virions from treated cells on naive CEM-SS cells; type: cell-based
Procedure: In concert with p24 analysis, cell supernatants collected from cells exposed to test compounds at 8, 16, or 24 hours post-infection were used to infect naïve CEM-SS cells. Cell viability was measured six days post-infection as a measure of virus infectivity (Table 5).

HIV-1RF [5] = assay: p24 levels after single high MOI HIV-1RF infection of CEM-SS cells, time of addition; type: cell-based; conditions: 1 μM
Procedure: The cytoprotective effect against HIV of the PEG-protease inhibitor conjugates was evaluated during a single round of high multiplicity of infection (“MOI”) HIV-1 infection in CEM-SS cells. CEM-SS cells were incubated for one hour with a single high MOI dose of HIV-1RF. Cells were washed to remove free virus, then test compounds were added to cells at 0, 2, 4, 6, 8, 16, or 24 hours after HIV-1 infection. To monitor viral replication, cell supernatants were analyzed at 30 hours post-infection for levels of the HIV capsid protein p24 (FIG. 1). […] Nevirapine inhibited viral replication at 1 μM when added to cells up to four hours post-infection, and at 10 μM when added up to eight hours post-infection.

[6] = Plasma protein binding by equilibrium dialysis, human plasma; type: in vitro ADME; conditions: human plasma, 5 μM, fraction unbound; read-out: Plasma Protein Binding Fu ± SD
Outline: (§2)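 5 μM cpd in plasma vs buffer, 0.5% DMSO; equilibrium dialysis 2 h, 37 °C; both chambers by LC-MS/MS.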

CEM-SS cells [7] = conditions: absence of viral infection
Procedure: To evaluate whether conjugated protease inhibitors retain the ability to protect against HIV-1 infection, CEM-SS cells infected with the RF strain of HIV-1 were treated with test compounds for six days, and then cell viability was monitored using the tetrazolium dye XTT. […] A value for Therapeutic Index (TI) was calculated as TC50/EC50.

[8] = Metabolic stability in cryopreserved human hepatocytes; conditions: human, hepatocytes
Procedure: (§3) Metabolism of PI conjugates was investigated by monitoring the levels of unmetabolized parent compound following incubation with cryopreserved human or monkey hepatocytes. The use of whole hepatocytes rather than microsomes requires that the drugs cross the cell membrane to interact with intracellularly-localized metabolic enzymes, and thus provides the most relevant in vitro system for understanding overall metabolic stability of these compounds.
(§4) Test compounds (0.1 μM or 3 μM, as indicated) are incubated with cryopreserved human hepatocytes at a cell density of 0.5×10^6 viable cells/mL. […] Duplicate samples (50 μL) are removed from the incubation mixture at various timepoints up to four hours (for 0.1 μM test compound concentration), or one or two hours (for 3 μM test compound concentration), and the reaction is quenched by the addition of methanol containing internal standard (100 μL). The samples are centrifuged (2500 rpm at 4° C. for 20 min), and the supernatants at each time point pooled for cassette analysis by LC-MS/MS.

[9] = molecular target: recombinant HIV-1 protease (Human immunodeficiency virus type 1 group M subtype B (isolate HXB2) (HIV-1), UniProt P04585); assay: Enzyme inhibition of purified HIV-1 protease (SensoLyte 520 HIV-Protease Assay Kit); type: biochemical; conditions: read-out: IC50 ± SD
Procedure: Protease inhibitors (PI) are used to treat HIV infection by preventing viral assembly and maturation through the inhibition of HIV-1 protease activity. Biochemical assays were performed to evaluate the potential of PEG-PI conjugates to inhibit HIV-1 protease activity, relative to their respective PI parent molecules. Activity assays were performed at using the SensoLyte 520 HIV-Protease Assay Kit (Anaspec Inc., San Jose, Calif.) and recombinant HIV-1 protease. Protease activity was monitored by the formation of a fluorescent reporter product generated during HIV-1 protease-mediated digestion of a quenched, fluorimetric substrate containing the p17/p24 Pr^gag cleavage site.

[10] = Microsomal protein binding by equilibrium dialysis; type: in vitro ADME; conditions: human liver microsomes, read-out: Microsomal Protein Binding Fu ± SD
Outline: (§5)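 Compound at 3 μM final in buffer with or without human liver microsomes, dialysed to equilibrium at 37 °C. Both sides quantified by LC-MS/MS to derive fraction unbound (Fu).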

HIV-1 HT/92/599 = assay: HIV-1 reverse transcriptase activity after infection of fresh human PBMCs; type: cell-based; conditions: read-out: PBMC/HIV-1HT/92/599 EC50 ± SD; seven days, reverse transcriptase activity
Procedure: (§6) Fresh human peripheral blood mononuclear cells (PBMCs) obtained from a commercial source were purified following centrifugation using a Ficoll-Hypaque density gradient. Viable cells were induced to proliferate in the presence of PHA-P and recombinant human IL-2 for 72 hours. […] Cell supernatant containing HIV-1 viral was incubated for 90 minutes at 37° C. with a reaction mixture containing EGTA, Triton X-100, Tris (pH 7.4), DTT, MgCl2, poly rA, oligo dT, and tritiated thymidine triphosphate (TTP). Incorporation of TTP into DNA was monitored by spotting the reaction mixture onto a DEAE filter mat, followed by washes with 5% phosphate buffer, distilled water, and 70% ethanol, and subsequent drying of the mat. Radioactivity was measured using a Wallac 1450 Microbeta Trilux liquid scintillation counter using Opti-Fluor O. Test compound-associated toxicity was measured in PBMCs cultured for seven days in the absence of virus using XTT reagent. […] TI was calculated as TC50/EC50.

human plasma proteins = assay: Plasma protein binding by equilibrium dialysis, human plasma; type: in vitro ADME; conditions: human plasma, 5 μM, fraction unbound
Outline: as §2

[11] = Metabolic stability in human liver microsomes; conditions: human liver microsomes, 3 μM
Procedure: The human liver microsome-mediated biotransformation of PEG-PI compounds was determined by monitoring the loss of the substrate as a function of time. […] Test compounds (3 μM final concentration) were preincubated with pooled (male and female) human liver microsomes (0.5 mg/mL final protein concentration) in buffer (0.1M phosphate buffer, pH 7.4) at 37° C. Reactions were initiated by the addition of NADPH (1 mM final concentration), and allowed to continue for 0, 5, 15, 30, and 45 minutes. […] Sample supernatants are analyzed by liquid chromatography-tandem mass spectrometry.

CYP3A4 [12] = molecular target: T1, CYP3A4 (Homo sapiens (Human), UniProt P08684); assay: CYP450 inhibition in human liver microsomes: CYP3A4;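 note: incubation at 37 °C started by adding 1 mM NADPH, with formation of the probe metabolite measured via LC-MS/MS or fluorescent detection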
T1 sequence (P08684 whole entry): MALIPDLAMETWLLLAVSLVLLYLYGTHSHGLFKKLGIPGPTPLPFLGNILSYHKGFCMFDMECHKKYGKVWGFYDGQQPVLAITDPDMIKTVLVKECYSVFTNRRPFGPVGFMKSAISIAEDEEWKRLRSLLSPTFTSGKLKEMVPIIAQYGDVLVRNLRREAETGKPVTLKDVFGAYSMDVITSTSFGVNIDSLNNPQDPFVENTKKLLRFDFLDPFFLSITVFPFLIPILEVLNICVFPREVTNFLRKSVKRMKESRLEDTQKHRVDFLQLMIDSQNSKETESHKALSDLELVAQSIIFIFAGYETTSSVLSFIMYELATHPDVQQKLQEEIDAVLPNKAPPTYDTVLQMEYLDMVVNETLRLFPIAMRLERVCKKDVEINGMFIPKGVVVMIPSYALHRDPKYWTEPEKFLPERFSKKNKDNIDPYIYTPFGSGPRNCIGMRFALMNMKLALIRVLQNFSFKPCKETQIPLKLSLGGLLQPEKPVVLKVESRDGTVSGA

CYP2D6 = CYP2D6 (Homo sapiens (Human), UniProt P10635); assay: Metabolic stability in CYP2D6-expressing Bactosomes; type: in vitro ADME; conditions: 5 μM
CYP2D6, sequence (P10635 whole entry, canonical isoform): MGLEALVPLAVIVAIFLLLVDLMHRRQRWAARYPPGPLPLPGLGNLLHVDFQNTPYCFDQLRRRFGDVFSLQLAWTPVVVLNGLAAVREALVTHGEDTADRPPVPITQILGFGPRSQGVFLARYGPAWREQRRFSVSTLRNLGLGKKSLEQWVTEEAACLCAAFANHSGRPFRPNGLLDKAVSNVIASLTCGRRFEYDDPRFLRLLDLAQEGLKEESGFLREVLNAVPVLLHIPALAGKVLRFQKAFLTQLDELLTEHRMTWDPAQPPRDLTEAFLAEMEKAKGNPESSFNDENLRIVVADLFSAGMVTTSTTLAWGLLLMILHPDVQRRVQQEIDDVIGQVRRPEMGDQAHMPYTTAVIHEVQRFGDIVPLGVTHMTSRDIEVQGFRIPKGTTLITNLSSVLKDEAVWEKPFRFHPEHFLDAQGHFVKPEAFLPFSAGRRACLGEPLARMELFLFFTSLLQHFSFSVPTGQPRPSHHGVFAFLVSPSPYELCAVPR
Procedure: (§7) Compounds were evaluated for their propensity to act as substrates of individual human cytochrome P450 enzymes using a bacterial membrane preparation co-expressing human NADPH-cytochrome P450 reductase with either human CYP3A4 or CYP2D6 (Bactosomes™ Cypex, Ltd., Dundee, UK). In vitro metabolism studies using Bactosomes™ expressing individual human CYP isoforms monitor the extent to which a test compound is metabolized by a single CYP450 enzyme and allow identification of the CYP isoforms that may be responsible for the metabolism of a test compound. Timecourse analyses of test molecules (5 μM) with CYP2D6- or CYP3A4-expressing Bactosomes™ (100 pmol/mL) are performed in buffer (0.1 M phosphate, pH 7.4) in a final reaction volume of 25 μL. […] Reactions are terminated by the addition of methanol (50 μL) containing internal standard at 0, 5, 15, 30, and 45 minutes.

human hepatocytes = assay: Metabolic stability in cryopreserved human hepatocytes; conditions: human hepatocytes, 3 uM, incubated up to one hour
Procedure: as §3, §4

PBMCs = assay: Toxicity in PBMCs cultured without virus (XTT)
Procedure: as §6, with “mat.” for “mat. Radioactivity was measured using a Wallac 1450 Microbeta Trilux liquid scintillation counter using Opti-Fluor O. Test compound-associated toxicity was measured in PBMCs cultured for seven days in the absence of virus using XTT reagent.”

[13] = system: human liver microsomal proteins; assay: Microsomal protein binding by equilibrium dialysis; type: in vitro ADME; conditions: human liver microsomes, 3 μM, fraction unbound
Outline: as §5

CYP3A4 [14] = molecular target: T1, CYP3A4; assay: Metabolic stability in CYP3A4-expressing Bactosomes; type: in vitro ADME; conditions: 5 μM
Procedure: as §7

## Cc1ccnc2c1NC(=O)c1cccnc1N2C1CC1 [Nevirapine]
HIV-1RF [1]; 0 h
  EC50: 5 nM
HIV-1RF [1]; 24 h
  EC50: 10 nM
HIV-1RF [1]; 48 h
  EC50: 50 nM
HIV-1RF [1]; 72 h
  EC50: 200 nM
CEM-SS cells [2]; drug addition 0 h post-infection
  TC50: >1000 nM
CEM-SS cells [2]; drug addition 24 h post-infection
  TC50: >1000 nM
CEM-SS cells [2]; drug addition 48 h post-infection
  TC50: >1000 nM
CEM-SS cells [2]; drug addition 72 h post-infection
  TC50: >1000 nM
CEM-SS cells [3]; exposure 2 h pre-infection
  TC50: >1000 nM
CEM-SS cells [3]; exposure 8 h pre-infection
  TC50: >1000 nM
CEM-SS cells [3]; exposure 24 h pre-infection
  TC50: >1000 nM
HIV-1RF [4]; 2 h
  EC50: 470 nM
HIV-1RF [4]; 8 h
  EC50: 200 nM
HIV-1RF [4]; 24 h
  EC50: 640 nM
HIV-1RF [4]; in words
  EC50 values after pre-treatment of cells: sub-micromolar
HIV-1 virions; 0.1 μM, added 8 h post-infection
  Percent Infectivity of HIV-1 Virions in comparison to virus-alone control: 100.0%
HIV-1 virions; 0.1 μM, added 16 h post-infection
  Percent Infectivity of HIV-1 Virions in comparison to virus-alone control: 117.0%
HIV-1 virions; 0.1 μM, added 24 h post-infection
  Percent Infectivity of HIV-1 Virions in comparison to virus-alone control: 128.0%
HIV-1 virions; 1 μM, added 8 h post-infection
  Percent Infectivity of HIV-1 Virions in comparison to virus-alone control: 100.0%
HIV-1 virions; 1 μM, added 16 h post-infection
  Percent Infectivity of HIV-1 Virions in comparison to virus-alone control: 100.0%
HIV-1 virions; 10 μM, added 8 h post-infection
  Percent Infectivity of HIV-1 Virions in comparison to virus-alone control: 10.0%
HIV-1 virions; 10 μM, added 24 h post-infection
  Percent Infectivity of HIV-1 Virions in comparison to virus-alone control: 177.8%
HIV-1RF [5]
  time of addition up to which antiviral activity (reduced p24) was seen: up to four

## CCC[C@@]1(CCc2ccccc2)CC(O)=C([C@H](CC)c2cccc(NS(=O)(=O)c3ccc(C(F)(F)F)cn3)c2)C(=O)O1 [Tipranavir, reference compound]
[6]
  fraction unbound at 2 h, 5 μM: 0.00866 ± 0.0013
CEM-SS cells [7]
  CEM-SS TC50 ± SD: 30600 nM and 40700 nM
[8]
  hepatocyte CLint at 3 μM: 0.111 ± 0.643 µL/min/1e6 cells
[9]
  IC50: 7.2 nM and 1.96 nM
[10]
  fraction unbound at 3 μM: 0.302 ± 0.0853

## COCCOCCOCCOC(=O)N[C@@H](C(=O)NC(Cc1ccccc1)[C@@H](O)CN(Cc1ccc(-c2ccccn2)cc1)NC(=O)[C@H](NC(=O)OCCOCCOCCOC)C(C)(C)C)C(C)(C)C (stereo partly drawn) [di-mPEG3-Atazanavir]
HIV-1 HT/92/599
  EC50: 390 ± 60 nM
Human plasma proteins
  Plasma Protein Binding Fu ± SD: 0.376 ± 0.00639
[11]
  CLint ± SEM: 190 ± 18.3 μL/min/mg protein
  t1/2: 7.31 min
CYP3A4 [12]; read-out: CYP3A4 IC50 Midazolam, probe substrate midazolam
  IC50: > 50000 nM
CYP3A4 [12]; read-out: CYP3A4 IC50 Testosterone, probe substrate testosterone
  IC50: 23400 nM
CYP2D6
  2D6 t1/2 ± SEM: 2.18 ± 0.808 h
Human hepatocytes
  CLint ± SEM: 3.46 ± 0.896 μL/min/10^6 cells
PBMCs
  PBMC TC50 ± SD: 146000 nM
[13]
  Microsomal Protein Binding Fu ± SD: highly unbound
CYP3A4 [14]
  3A4 t1/2 ± SEM: 1.6 ± 0.457 h
